Columns and labels:
SIRT1 [1] = biological target: T1, SIRT1 (Homo sapiens, UniProt Q96EB6); assay: Trp mass spectrometry assay of SIRT1 activity; format: biochemical; settings: for Emax: read-out: Trp % Fold Act
T1 sequence (Q96EB6 1-747): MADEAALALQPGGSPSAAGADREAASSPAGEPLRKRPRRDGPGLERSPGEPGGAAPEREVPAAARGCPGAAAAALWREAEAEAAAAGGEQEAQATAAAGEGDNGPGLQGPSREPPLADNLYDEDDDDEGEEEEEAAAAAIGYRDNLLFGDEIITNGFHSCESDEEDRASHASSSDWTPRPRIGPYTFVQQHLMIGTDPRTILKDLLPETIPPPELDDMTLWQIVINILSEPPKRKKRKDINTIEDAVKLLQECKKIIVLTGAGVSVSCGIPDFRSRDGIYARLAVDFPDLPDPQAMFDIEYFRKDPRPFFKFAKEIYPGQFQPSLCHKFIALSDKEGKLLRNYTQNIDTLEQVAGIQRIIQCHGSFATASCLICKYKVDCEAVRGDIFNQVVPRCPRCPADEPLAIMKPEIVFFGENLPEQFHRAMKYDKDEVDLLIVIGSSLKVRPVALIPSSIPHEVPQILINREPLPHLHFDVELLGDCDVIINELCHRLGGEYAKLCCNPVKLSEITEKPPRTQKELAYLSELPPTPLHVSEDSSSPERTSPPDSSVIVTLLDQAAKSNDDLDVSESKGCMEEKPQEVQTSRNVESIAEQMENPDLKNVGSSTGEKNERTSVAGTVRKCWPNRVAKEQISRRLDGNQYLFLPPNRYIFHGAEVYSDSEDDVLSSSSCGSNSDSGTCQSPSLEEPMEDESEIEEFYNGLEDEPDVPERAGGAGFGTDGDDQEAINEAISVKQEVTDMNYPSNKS
In short: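 Activation readout: EC1.5 (concentration raising activity 50% over control) and percent maximum activation, from mass-spec quantitation of OAADPR or deacetylated Trp peptide. Reaction: 0.5 μM acetylated Trp peptide, 120 μM βNAD+, 10 nM bacterially expressed N-His SIRT1, pH 7.5 HEPES buffer with […], 25 min at 25° C.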

SIRT1 [2] = biological target: T1, SIRT1; assay: TAMRA based mass spectrometry assay of SIRT1 activity; format: biochemical; settings: for Emax: read-out: TAMRA % Fold Act
In short: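 Deacetylation of a biotinylated, TAMRA-tagged p53-based peptide (0.5 μM) by 10 nM His-tagged SIRT1 with 120 μM βNAD+, 25 °C for 25 min, pH 8 Tris-acetate buffer, across a compound concentration range. Quenched by formic acid and read by mass spec as product peptide or OAADPR; activity relative to DMSO reactions, nicotinamide defining maximal inhibition.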

[3] = concentration of test compound giving 150% activation of SIRT1, Trp peptide substrate
[4] = percent maximum fold activation of SIRT1, Trp peptide substrate
[5] = concentration of test compound giving 150% activation of SIRT1, TAMRA peptide substrate
[6] = percent maximum fold activation of SIRT1, TAMRA peptide substrate
[7] = Trp assay, concentration giving 150% activation of SIRT1
[8] = Trp assay, percent maximum fold activation
[9] = TAMRA assay, concentration giving 150% activation of SIRT1
[10] = TAMRA assay, percent maximum fold activation
[11] = Trp peptide substrate, concentration giving 150% activation of SIRT1
[12] = Trp peptide substrate, percent maximum fold activation
[13] = TAMRA peptide substrate, concentration giving 150% activation of SIRT1
[14] = TAMRA peptide substrate, percent maximum fold activation

SMILES | Trp EC1.5 (μM) (SIRT1 [1]; [3]) | Emax (SIRT1 [1]; [4]) | TAMRA EC1.5 (μM) (SIRT1 [2]; [5]) | Emax (SIRT1 [2]; [6]) | Trp EC1.5 (μM) (SIRT1 [1]; [7]) | Emax (SIRT1 [1]; [8]) | TAMRA EC1.5 (μM) (SIRT1 [2]; [9]) | Emax (SIRT1 [2]; [10]) | further results
O=C(Nc1ccnc(CN2CCOCC2)n1)c1cnc2ccc(-c3ccccc3C(F)(F)F)nn12 [Compound 23] | B (EC1.5 1-25 μM) | < 350% | B (EC1.5 1-25 μM) | ≥ 350% | – | – | – | – | –
Cc1cc2ncc(C(=O)Nc3cccnc3)n2nc1-c1ccccc1C(F)(F)F [Compound 210] | – | – | – | – | B (EC1.5 1-25 μM) | ≥ 350% | B (EC1.5 1-25 μM) | ≥ 350% | –
Cc1scnc1C(=O)Nc1cnn2ccc(-c3ccccc3C(F)(F)F)nc12 [Compound 803] | – | – | – | – | C (EC1.5>25 μM) | < 350% | B (EC1.5 1-25 μM) | ≥ 350% | –
Cc1noc(C)c1-c1ccc2ncc(C(=O)Nc3cccc(N4CCOCC4)n3)n2n1 [Compound 53] | B (EC1.5 1-25 μM) | < 350% | B (EC1.5 1-25 μM) | < 350% | – | – | – | – | –
Cc1ccnnc1NC(=O)c1cnc2c(C)cc(-c3ccccc3C(F)(F)F)nn12 [Compound 681] | – | – | – | – | B (EC1.5 1-25 μM) | ≥ 350% | C (EC1.5>25 μM) | < 350% | –
Cc1cnc(C(=O)Nc2c(C)nc3ccc(-c4ccccc4C(F)(F)F)nn23)s1 [Compound 381] | – | – | – | – | C (EC1.5>25 μM) | < 350% | B (EC1.5 1-25 μM) | ≥ 350% | –
Cc1cnc(NC(=O)c2cnn3ccc(-c4ccccc4C(F)(F)F)nc23)c(C)n1 [Compound 724] | – | – | – | – | B (EC1.5 1-25 μM) | < 350% | C (EC1.5>25 μM) | < 350% | –
CC(C)c1csc(C(=O)Nc2cnc3ccc(-c4ccccc4C(F)(F)F)nn23)n1 [Compound 272] | – | – | – | – | B (EC1.5 1-25 μM) | < 350% | A (EC1.5<1 μM) | ≥ 350% | –
O=C(Nc1ccnc(N2CCOCC2)c1)c1nnc2ccc(-c3ccccc3C(F)F)nn12 [Compound 68] | B (EC1.5 1-25 μM) | < 350% | B (EC1.5 1-25 μM) | < 350% | – | – | – | – | –
Cc1nc2ccc(-c3cccc(OC[C@H](O)CO)c3)nn2c1C(=O)Nc1cccnn1 [Compound 597] | – | – | – | – | A (EC1.5<1 μM) | < 350% | B (EC1.5 1-25 μM) | < 350% | –
O=C(Nc1cnn2ccc(-c3ccccc3OC(F)(F)F)nc12)c1cc(O)ncn1 [Compound 776] | – | – | – | – | C (EC1.5>25 μM) | < 350% | B (EC1.5 1-25 μM) | ≥ 350% | –
Cc1cc(C)nc(NC(=O)c2cnc3ccc(-c4cccc(OC[C@H](O)CO)c4)nn23)c1 [Compound 591] | – | – | – | – | – | – | – | – | Trp EC1.5 (SIRT1 [1]; [11]): A (EC1.5<1 μM); Emax (SIRT1 [1]; [12]): < 350%; TAMRA EC1.5 (SIRT1 [2]; [13]): A (EC1.5<1 μM); Emax (SIRT1 [2]; [14]): ≥ 350%
O=C(Nc1cccc(CN2CCOCC2)n1)c1cnc2ccc(-c3ccc(F)c(F)c3)nn12 [Compound 43] | C (EC1.5>25 μM) | < 350% | B (EC1.5 1-25 μM) | < 350% | – | – | – | – | –
Cc1nn2ccc(-c3ccccc3C(F)(F)F)nc2c1NC(=O)c1cccc(N2CCOCC2)n1 [Compound 574] | – | – | – | – | – | – | – | – | Trp EC1.5 (SIRT1 [1]; [11]): B (EC1.5 1-25 μM); Emax (SIRT1 [1]; [12]): < 350%; TAMRA EC1.5 (SIRT1 [2]; [13]): A (EC1.5<1 μM); Emax (SIRT1 [2]; [14]): ≥ 350%
O=C(Nc1ccnc(N2CCC2)c1)c1cnc2ccc(-c3ccccc3C(F)(F)F)nn12 [Compound 50] | A (EC1.5<1 μM) | ≥ 350% | A (EC1.5<1 μM) | ≥ 350% | – | – | – | – | –
Cc1nc2c(C)cc(-c3ccccc3C(F)(F)F)nn2c1C(=O)Nc1cccnn1 [Compound 428, 2,8-dimethyl-N-(pyridazin-3-yl)-6-(2-(trifluoromethyl)phenyl)imidazo[1,2-b]pyridazine-3-carboxamide] | – | – | – | – | – | – | – | – | Trp EC1.5 (SIRT1 [1]; [11]): A (EC1.5<1 μM); Emax (SIRT1 [1]; [12]): ≥ 350%; TAMRA EC1.5 (SIRT1 [2]; [13]): A (EC1.5<1 μM); Emax (SIRT1 [2]; [14]): ≥ 350%
